# Results as given in patent US9328059B2, “Pharmaceutical composition for preventing or treating autophagy-related diseases, angiogenic diseases or melanin-related diseases” (INDUSTRY-ACADEMIC COOPERATION FOUNDATION, YONSEI UNIVERSITY, priority 2010, dated 2016).
# Columns and labels:
# HeLa cells [1] = test: LC3 immunoblotting (LC3-I to LC3-II conversion) in HeLa; format: cell-based, human; settings: for effect of autophagy inhibitor on indatraline-induced conversion of LC3-I to LC3-II: inhibitor pre-treated 1 hr
# Procedure: (§1) Soluble proteins were harvested from indatraline-treated HeLa cells by using SDS buffer (50 mM Tris HCl, pH 6.8, 10% glycerol, 2% SDS, 10 mM dithiothreitol, and 0.005% bromophenol blue). Equal volumes of proteins were separated by 12.5% SDS-PAGE and transferred to PVDF membranes (Millipore). Blots were then blocked and immunolabeled overnight at 4° C. using anti-LC3 antibody (MBL, Nagoya, Japan). Immunolabeling was visualized with enhanced chemiluminescence (ECL) kit (Amersham Life Science, Inc., Buckinghamshire, UK) according to the manufacturer's protocol. Tubulin was used as an internal control and was detected using anti-tubulin antibody (Upstate Biotechnology).
# LC3 conversion was finally verified by immunoblotting. After indatraline treatment for 24 hrs, the conversion of LC3-I to LC3-II in cells was tested (FIG. 2A). Inductions of autophagy in both of HUVEC and HeLa cells were tested in concentration starting from 5 μM. In order to investigate signal pathway related to indatraline, well-known autophagy inhibitors 3-MA (10 mM), Bafilomycin A (100 nM), PD98059 (10 μM) and Wortmannin (100 nM) was treated with indatraline. The inhibitors were pre-treated for 1 hr before indatraline and treated with 5 μM or 10 μM of indatraline. Where indatraline was treated with 5 μM of concentration, the conversion of LC3-I to LC3-II was inhibited in Bafilomycin A-treated sample and Wortmannin-treated sample (FIG. 2B). However, where indatraline was treated with 10 μM of concentration, the conversion of LC3-I to LC3-II was not inhibited in inhibitor-treated samples, except for Bafilomycin A-treated sample.
# [2] = tested on: COS7 cells stably expressing EGFP-LC3; test: Autophagy detection in stable cell line expressing EGFP-LC3; format: cell-based, African green monkey; settings: COS7 EGFP-LC3, 24 hrs
# Procedure: HeLa (human epithelial cervix adenocarcinoma) cells and COS-7 (African green monkey kidney cells) cells (Korean Cell Line Bank) were grown and maintained in DMEM containing 10% FBS (fetal bovine serum). A stable COS7 cell line expressing EGFP-LC3 was established by transfecting COS7 cells with pEGFP-LC3 using Lipofectamine 2000 according to the manufacturer's protocol (Invitrogen). Stable clones were selected in complete medium containing 750 μg/mL of G418. Cells were cultured at 37° C. in an atmosphere of 5% CO2 in air, pH 7.4. DMEM and FBS were obtained from Gibco Laboratories (Grand Island, N.Y.). Plasmids encoding EGFP-LC3 was kindly provided by Tamotsu Yoshimori (National Institute for Basic Biology, Japan).
# In order to measure direct elements of autophagy, indatraline-induced autophagy was further verified in stable COST cell line expressing EGFP-LC3. Where autophagy was induced, the cytosolic form of LC3 is converted into the membrane-bound form. By the recruitment of Atg12-Atg5 complex, the cytosolic form of LC3 is converted into the membrane-bound form to mature the autophagosome. After indatraline treatment for 24 hrs, EGFP-LC3 positive small vacuoles were examined in the cytosol.
# HUVEC [3] = test: LC3 immunoblotting (LC3-I to LC3-II conversion) in HUVEC; format: cell-based; settings: 24 hrs
# Procedure: as §1
# LC3 conversion was finally verified by immunoblotting. After indatraline treatment for 24 hrs, the conversion of LC3-I to LC3-II in cells was tested (FIG. 2A). Inductions of autophagy in both of HUVEC and HeLa cells were tested in concentration starting from 5 μM. In order to investigate signal pathway related to indatraline, well-known autophagy inhibitors 3-MA (10 mM), Bafilomycin A (100 nM), PD98059 (10 μM) and Wortmannin (100 nM) was treated with indatraline. The inhibitors were pre-treated for 1 hr before indatraline and treated with 5 μM or 10 μM of indatraline. […]
# HeLa cells [4] = test: Cell proliferation assay (MTT) in HeLa; format: cell-based; settings: Homo sapiens, 72 h, 3 days
# Procedure: (§2) Cell proliferation was measured using a MTT [3-(4,5-dimethylthiazol-2-yl)-2,5-diphenyltetrazolium bromide] colorimetric assay. HeLa cells and HUVEC (Lonza, USA) were seeded at a density of 3×10^3 cells/well in 96-well plates and incubated for 24 hrs. Cells were treated with various concentration of indatraline. After 3 days of treatment, 2 mg/mL MTT was added to each well and incubated for 4 hrs. MTT formazoan in each well was dissolved in 150 μL of DMSO, and absorbance at 595 nm was measured in a microplate reader (Bio-Tek Instrument Inc., Winooski, Vt.). Relative cell growth was measured by calculating the ratio between signal of indatraline-treated wells and control wells.
# HUVEC [5] = test: Cell proliferation assay (MTT) in HUVEC; format: cell-based; settings: Homo sapiens, 72 h, 3 days
# Procedure: as §2
# HUVEC [6] = test: VEGF-induced capillary formation assay; format: cell-based; settings: VEGF 50 ng/ml
# Procedure: Matrigel (10 mg/mL) (BD, USA) was coated to 48-well plates and polymerized at 37° C. HUVEC (6×10^4 cells) was inoculated on the surface of matrigel in 48-well plates. Under the presence of VEGF (50 ng/ml), the compound was added for 4 hrs at 37° C. Cell morphological changes and a capillary structure formed were observed microscope (IX71, Olympus), and the images were obtained using DP70 camera (Olympus) at 100× magnification.
# HUVEC [7] = test: VEGF-induced chemoinvasion assay; format: cell-based
# Procedure: In vitro HUVEC invasion was verified using Transwell chamber equipped 8.0-1 m size pore polycarbonate filter insert. Briefly, the lower layer surface of the filter was coated with gelatin (1 mg/mL), and the upper layer surface of the filter was coated with matrigel (3 mg/mL). HUVEC (7×10^4 cells) was placed in the upper layer of the filter, and the compound was added to the lower layer of the filter under the presence of VEGF (50 ng/ml). Then, the chamber was incubated at 37° C. for 18 hrs. The cells were fixed with 70% methanol and stained with hematoxylin and eosin. The lower layer of the filter was observed by microscope with 100× magnification to measure the cell invasion. The cell images were obtained using DP70 camera.
# HUVEC [8] = test: Cell migration (wound) assay; format: cell-based; settings: 5 μM and 10 μM, 9 hrs
# Procedure: To measure cell migration, HUVEC cells were cultured up to 100% confluence in 12-well plates. Then, the well was wounded a straight scratch using a 200 μL pipette tip. Cells were treated with indatraline and cells migration was observed every 3 hrs. The wound at 9 hrs was recovered by almost 80%. The images were obtained using DP70 camera with 40× magnification.
# [9] = tested on: skin cancer cell line B16-F10; test: LC3 conversion in B16-F10; format: cell-based; settings: B16-F10, 5 μM and 10 μM
# [10] = tested on: normal skin cell line melan-a; test: LC3 conversion in melan-a; format: cell-based
# Procedure: It was verified whether indatraline is induced autophagy and involved in melanogenesis. The correlation of autophagy and melanogenesis has been studied as described above. Pigmentation disorders are generated by melanogenesis (chloasma, freckle, age spot, etc.), and abnormality of melanogenesis control can lead to melanoma (skin cancer). Therefore, melanogenesis control may be used to whitening and skin cancer treatment. […] As a result, it was determined that autophagy was induced. […] In melan-a cells, LC3 conversion was observed from 1 μM of concentration (FIG. 5A).
# rat carotid artery = test: Inhibition of angiostenosis after balloon injury; format: in vivo; settings: 7 days
# Procedure: In order to verify effects for inhibiting angiostenosis by indatraline as autophagy-induced material in rat carotid artery, a balloon injury was created in the normal left rat carotid artery. After balloon injury, indatraline, rapamycin and DMSO (control group) were treated using catheter to observe angiostenosis. […] At 7 days after the injury, the carotid arteries were excised. Smooth muscle cells were stained with hematoxylin and eosin (H&E). Levels of angiostenosis were observed.
# After balloon injury, indatraline, rapamycin and DMSO (control group) were treated using catheter to observe angiostenosis. […] The ratio between intima area and media area was compared by observing tissue stenosed.
# HeLa cell = test: Cytotoxicity during autophagy screening in HeLa; format: cell-based, human; settings: 5 μM, 24 hrs
# Procedure: (§3) The present study is newly reported that indatraline induces autophagy. Although the relationship between neurotransmitter inhibitor and autophagy has been studying, specific mechanisms for each neurotransmitter inhibitor have not yet been unknown. Indatraline-induced autophagy was verified by fluorescence screening and LC3 conversion immunoblotting. In addition, indatraline inhibits cell proliferation with an IC50 of 3 μM in HeLa cell and an IC50 of 0.5 μM in HUVEC cell, respectively. […] In addition, angiogenesis inhibitory effect of indatraline is tested as autophagy inducer and cell growth inhibitor. Indatraline of In vitro assay inhibits capillary formation, invasion and migration as angiogenesis indicators. […] Induction of autophagy may trigger signal inhibiting angiogenesis, or inhibition of neurotransmitter may simultaneously stimulate inhibitions of both of autophagy and angiogenesis.
# HUVEC cell = test: Cytotoxicity during autophagy screening in HUVEC; format: cell-based; settings: 5 μM, 24 hrs
# Procedure: as §3
# B16-F10 cells [11] = test: Cell growth (MTT) in B16-F10; settings: B16-F10, 5 μM, vs control group
# Procedure: (§4) In order to verify whether indatraline induces autophagy and is involved in melanogenesis, skin cancer cell line B16-F10 and normal skin cell line melan-a were treated with indatraline to determine autophagy generation. The amount of melanin generated in each cell line was measured at 5 μM concentration in which autophagy strongly occurs. For measurement on amounts of melanin, cells were treated with indatraline for 24, 48 and 72 hrs, and collected with KOH every day to measure melanin pigment absorbance at 410 nm. At the same time, cell proliferation was measured using MTT.
# (§5) The amount of melanin generated in each cell line was measured at 5 μM of concentration which autophagy surely occurs. […] At the same time, cell growth was measured.
# melan-a cells [12] = test: Cell growth (MTT) in melan-a; settings: 5 μM, vs control group
# Procedure: as §4, §5
# HeLa cells [13] = test: Autophagy detection by MDC staining; settings: 24 hrs
# Source text: (§6) Each sample was washed with PBS three times and visualized by fluorescence microscopy. […] Hoechst 33258 and LysoTracker were purchased from Molecular Probes (Eugene, Oreg.), and MDC was purchased from BioChemika (Sigma, Switzerland).
# B16-F10 cells [14] = test: Measurement of amounts of melanin generated in B16-F10; settings: B16-F10, 5 μM, vs control group
# Procedure: as §4, §5
# melan-a cells [15] = test: Measurement of amounts of melanin generated in melan-a; settings: 5 μM, vs control group
# Procedure: as §4, §5
# HeLa cells [16] = test: Autophagy detection by Lysotracker fluorescence, quantified by HCS
# Source text: as §6
smiles,measurement,setting,value
CO/C1=C\C(C)=C\[C@@H](C)[C@@H](O)[C@@H](C)C/C(C)=C/C=C/[C@H](OC)[C@@H]([C@@H](C)[C@@H](O)[C@H](C)[C@@]2(O)C[C@@H](O)[C@H](C)[C@@H](C(C)C)O2)OC1=O [Bafilomycin A],effect of autophagy inhibitor on indatraline-induced conversion of LC3-I to LC3-II,HeLa cells [1]; indatraline 5 μM,inhibited
same,effect of autophagy inhibitor on indatraline-induced conversion of LC3-I to LC3-II,HeLa cells [1]; indatraline 10 μM,inhibited
CN[C@@H]1C[C@@H](c2ccc(Cl)c(Cl)c2)c2ccccc21 [indatraline],EGFP-LC3 fluorescence in the cytoplasm,[2],increased indatraline concentration-dependently
same,concentration from which LC3 conversion (autophagy induction) occurs,"HeLa cells [1]; HeLa, 24 hrs",≥ 5 µM
same,concentration from which LC3 conversion (autophagy induction) occurs,HUVEC [3],≥ 5 µM
same,IC50,HeLa cells [4],3000 nM
same,IC50,HUVEC [5],500 nM
same,VEGF-induced capillary formation,HUVEC [6]; 1 μM,inhibited the mature capillary formation
same,capillary formation,HUVEC [6]; 4 hrs,weakly inhibited
same,VEGF-induced invasion,"HUVEC [7]; 0.5 μM and 1 μM, 18 hrs",significantly decreased invasion cells
same,concentration from which VEGF-induced invasion is effectively inhibited,HUVEC [7]; FIG. 4B legend,≥ 5 µM
same,migration of HUVEC,HUVEC [8],inhibited migration
same,LC3 conversion,[9],strongly occurred
same,concentration from which LC3 conversion is observed,[10],≥ 1 µM
same,angiostenosis,rat carotid artery,significantly inhibited
same,proliferation of smooth muscle cells,rat carotid artery,inhibited
same,intima area (ratio between intima area and media area),rat carotid artery; control approximately 80%,less than 60%
same,smooth muscle cell growth reduced compared to control group,"rat carotid artery; catheter treatment, intima/media ratio",approximately 20%
same,cytotoxicity,HeLa cell,no cytotoxicity
same,cytotoxicity,HUVEC cell,no cytotoxicity
same,cell growth inhibited,B16-F10 cells [11]; 24 hrs,55%
same,cell growth inhibited (maintained),B16-F10 cells [11]; after 24 hrs (maintained),54%
same,cell growth inhibited,melan-a cells [12]; 24 hrs,62%
same,cell growth inhibited (maintained),melan-a cells [12]; after 24 hrs (maintained),56%
same,MDC staining fluorescence,HeLa cells [13],dose-dependent increase of fluorescence from 1 μM
same,melanogenesis inhibited,B16-F10 cells [14]; 48 hrs,approximately 77%
same,melanogenesis inhibited,B16-F10 cells [14]; 72 hrs,approximately 59%
same,melanogenesis inhibited,melan-a cells [15]; 48 hrs,approximately 89%
same,melanogenesis inhibited,melan-a cells [15]; 72 hrs,approximately 74%
same,autophagy induction (Lysotracker fluorescence) relative to control group,"HeLa cells [16]; 1 μM, 24 hrs, HCS",2.87 times
same,autophagy induction in HCS,HeLa cells [16]; Lysotracker,induced autophagy similar to rapamycin
